Literature values in patent US20030135108A1, “High throughput screening methods using magnetic resonance imaging agents” (priority 2001, published 2003).

Conditions: thermodynamic stability of the Gd(III) chelate complex

O=C([O-])CN(CCN(CC(=O)[O-])CC(=O)[O-])CCN(CC(=O)[O-])CC(=O)[O-].[Gd+3] [Gd(DTPA)^2−]
stability constant (K), formation constant, logK: 22.4

O=C([O-])CN1CCN(CC(=O)[O-])CCN(CC(=O)O)CCN(CC(=O)[O-])CC1.[Gd+3] [Gd-DOTA]
stability constant (K), formation constant, logK: 28.5
